Laboratory results taken from patent US20120219638A1, “Method and Compositions for Treating Plant Infections” (priority 2006, published 2012).

Columns and labels:
[1] = system: Erwinia amylovora (fire blight); experiment: Fire blight field trial on apple trees, one spray at full bloom: disease incidence and severity; assay type: in vivo; details: for Disease incidence (# of trees): standard, concentration not given, one spray at full bloom
Method: Experimental design: Three cultivars, 8 treatments and four blocks. In each block there is one tree per cultivar per treatment (four trees per cultivar per treatment). Treatments are randomized within each cultivar in each block.
When the forecast predicts favorable conditions, treatments were applied within 24-48 hours. Note: Oxysilver compound was a mixture of oxysilver bisulphate and oxysilver nitrate, with oxysilver bisulphate as the dominant compound.
(§1) Three apple varieties (Gala, Fuji, and Golden) were treated with one spray of oxysilver at full-bloom. There were a total of eight treatments: 1. Untreated control, 2. Streptomycin standard, 3. Oxytetracycline standard, 4. Oxysilver compound 0.005% (w/v), 5. Oxysilver compound 0.05%, 6. Oxysilver compound 0.1%, 7. Oxysilver compound 0.5%, and 8. Oxysilver compound 1.0%. The trees were evaluated once a week for disease severity and phytotoxicity. Apples were harvested. Each treatment and variety combination was repeated four times. Disease incidence through blossom infections was monitored. Infections four weeks or so after bloom are not due to blossom infections and are not typically treated by growers.
(§2) Disease incidence was recorded as the number of trees showing infections per treatment. Disease severity was rated as follows: 0—No disease, 1—One—two infected shoots, 2—Two-four infected shoots, 3—Four or more infected shoots or one systemic canker, 4—Two or more systemic cankers. […] After harvest, apples from untreated trees and trees treated with 0.005% and 1% oxysilver compound were sent to an independent lab for testing of silver accumulation in the fruit. For comparison, oxysilver compound was sprayed directly on some apples.
(§3) Statistical analysis was done using SAS 9.3 Proc glimmix and Proc GLM.

[2] = system: apple varieties (Gala, Fuji, and Golden); experiment: Phytotoxicity of leaf and fruit on treated apple trees; assay type: in vivo; details: standard, concentration not given; for Phytotoxicity (leaf) (average): rating 0 (none) to 4 (50-100% of leaf area necrotic); for Phytotoxicity (fruit) (average): rating 0 (none) to 4 (severe deformation)
Method: as §1, §2, §3

Row | Compound | Disease incidence (# of trees) [1] | Phytotoxicity (leaf) (average) [2] | Phytotoxicity (fruit) (average) [2] | Disease severity compared with untreated control ([1]; all oxysilver treatments and streptomycin standard, p=0.05, systemic cankers in untreated control)
1 | CN(C)[C@@H]1C(O)=C(C(N)=O)C(=O)[C@@]2(O)C(O)=C3C(=O)c4c(O)cccc4[C@@](C)(O)[C@H]3[C@H](O)[C@@H]12 [Oxytetracycline, oxytetracycline] | 1 ab # of trees | 0 c | 0 c | –
2 | [H]/N=C(/N)N[C@H]1[C@H](O)[C@@H](O)[C@H](O[C@@H]2O[C@@H](C)[C@](O)(C=O)[C@H]2O[C@@H]2O[C@@H](CO)[C@H](O)[C@@H](O)[C@@H]2NC)[C@@H](N/C(N)=N\[H])[C@@H]1O [Streptomycin, streptomycin] | 1 ab # of trees | 0 c | 0 c | significantly higher in the untreated control
